Source: paper PMC3108484 (Frontiers in Pharmacology, 2011)

What was measured:
rat esophagus = assay: Rat esophageal relaxation; type: in vivo; details: cumulative i.d. dosing, anesthetized rats
healthy human subjects = assay: Human single ascending dose study, bowel movements; type: in vivo
K+V channel = type: binding; details: [125I]-α-dendrotoxin 0.01 nM
Human A1 = Human A1 (Homo sapiens, UniProt P30542); assay: Radioligand binding: Human A1
Human D5 = Human D5 (Homo sapiens, UniProt P21918); assay: Radioligand binding: Human D5
Human M1 = Human M1 (Homo sapiens, UniProt P11229); assay: Radioligand binding: Human M1
Human B2 = Human B2 (Homo sapiens, UniProt P30411); assay: Radioligand binding: Human B2
Human B2, sequence (P30411 whole entry): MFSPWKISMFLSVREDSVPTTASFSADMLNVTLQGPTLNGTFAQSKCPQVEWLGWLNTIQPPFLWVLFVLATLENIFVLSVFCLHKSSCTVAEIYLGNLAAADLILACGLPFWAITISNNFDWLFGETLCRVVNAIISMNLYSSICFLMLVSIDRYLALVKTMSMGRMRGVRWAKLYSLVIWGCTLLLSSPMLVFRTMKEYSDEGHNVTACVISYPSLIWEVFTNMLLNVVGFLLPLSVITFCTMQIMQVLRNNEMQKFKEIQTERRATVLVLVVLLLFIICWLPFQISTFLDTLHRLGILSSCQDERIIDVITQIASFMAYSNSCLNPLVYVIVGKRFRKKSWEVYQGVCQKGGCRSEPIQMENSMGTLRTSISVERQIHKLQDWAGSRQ

Rat CRF1 = Rat CRF1 (Rattus norvegicus, UniProt P35353); assay: Radioligand binding: Rat CRF1
Rat CRF1, sequence (P35353 24-415): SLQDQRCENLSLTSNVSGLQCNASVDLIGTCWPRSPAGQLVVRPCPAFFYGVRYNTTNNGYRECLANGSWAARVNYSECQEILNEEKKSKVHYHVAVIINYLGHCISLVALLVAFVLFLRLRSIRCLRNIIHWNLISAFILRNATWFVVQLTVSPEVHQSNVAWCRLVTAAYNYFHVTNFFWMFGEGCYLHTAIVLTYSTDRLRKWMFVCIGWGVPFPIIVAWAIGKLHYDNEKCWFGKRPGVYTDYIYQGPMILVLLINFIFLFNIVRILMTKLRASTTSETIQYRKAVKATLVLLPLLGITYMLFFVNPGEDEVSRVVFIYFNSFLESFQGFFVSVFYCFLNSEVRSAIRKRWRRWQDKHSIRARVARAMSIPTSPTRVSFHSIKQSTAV

Human V2 = Human V2 (Homo sapiens, UniProt P30518); assay: Radioligand binding: Human V2
Rat AMPA = assay: Radioligand binding: Rat AMPA; details: [3H]-AMPA 8 nM
Rat NMDA = Rat NMDA (Rattus norvegicus, UniProt Q00959); assay: Radioligand binding: Rat NMDA; details: read-out: % Inhibition of specific binding (1 μM)
Human PDE4 = assay: Enzyme inhibition: Human PDE4; details: [3H]-cAMP + cAMP 1 μM, TD-8954 1 μM
Human ETA = Human ETA (Homo sapiens, UniProt P25101); assay: Radioligand binding: Human ETA
Human ETA, sequence (P25101 21-427): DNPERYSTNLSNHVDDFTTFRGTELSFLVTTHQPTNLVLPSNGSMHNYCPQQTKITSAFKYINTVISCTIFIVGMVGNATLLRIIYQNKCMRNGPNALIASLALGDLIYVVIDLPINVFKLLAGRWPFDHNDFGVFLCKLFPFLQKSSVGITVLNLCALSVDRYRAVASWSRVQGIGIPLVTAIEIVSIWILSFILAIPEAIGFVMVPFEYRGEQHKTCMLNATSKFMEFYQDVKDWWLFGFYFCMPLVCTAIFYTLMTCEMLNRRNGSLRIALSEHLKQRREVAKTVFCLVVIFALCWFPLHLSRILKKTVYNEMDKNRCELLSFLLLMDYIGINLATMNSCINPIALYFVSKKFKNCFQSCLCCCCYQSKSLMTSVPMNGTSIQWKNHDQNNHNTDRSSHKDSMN

Human NK2 = Human NK2 (Homo sapiens, UniProt P21452); assay: Radioligand binding: Human NK2
Rat 5-HT1B = Rat 5-HT1B (Rattus norvegicus, UniProt P28564); assay: Radioligand binding: Rat 5-HT1B
Rat 5-HT1B, sequence (P28564 whole entry): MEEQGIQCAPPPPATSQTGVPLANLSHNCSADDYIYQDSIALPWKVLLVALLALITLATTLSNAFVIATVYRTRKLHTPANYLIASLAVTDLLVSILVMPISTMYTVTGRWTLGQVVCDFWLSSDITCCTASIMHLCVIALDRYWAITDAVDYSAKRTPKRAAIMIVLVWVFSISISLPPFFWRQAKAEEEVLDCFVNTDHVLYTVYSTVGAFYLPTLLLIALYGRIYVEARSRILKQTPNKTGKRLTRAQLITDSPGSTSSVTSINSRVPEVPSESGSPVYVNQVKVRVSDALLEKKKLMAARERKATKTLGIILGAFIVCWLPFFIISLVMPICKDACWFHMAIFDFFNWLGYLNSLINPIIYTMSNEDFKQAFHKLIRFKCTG

Human CGRP = Human CGRP (Homo sapiens, UniProt O60894+Q16602); assay: Radioligand binding: Human CGRP
Human 5-HT6 = Human 5-HT6 (Homo sapiens, UniProt P50406); assay: Radioligand binding: Human 5-HT6
Human 5-HT7 = Human 5-HT7 (Homo sapiens, UniProt P34969); assay: Radioligand binding: Human 5-HT7
Human 5-HT2A = Human 5-HT2A (Homo sapiens, UniProt P28223); assay: Radioligand binding: Human 5-HT2A
Human 5-HT2B = Human 5-HT2B (Homo sapiens, UniProt P41595); assay: Radioligand binding: Human 5-HT2B
Human 5-HT2B, sequence (P41595 whole entry): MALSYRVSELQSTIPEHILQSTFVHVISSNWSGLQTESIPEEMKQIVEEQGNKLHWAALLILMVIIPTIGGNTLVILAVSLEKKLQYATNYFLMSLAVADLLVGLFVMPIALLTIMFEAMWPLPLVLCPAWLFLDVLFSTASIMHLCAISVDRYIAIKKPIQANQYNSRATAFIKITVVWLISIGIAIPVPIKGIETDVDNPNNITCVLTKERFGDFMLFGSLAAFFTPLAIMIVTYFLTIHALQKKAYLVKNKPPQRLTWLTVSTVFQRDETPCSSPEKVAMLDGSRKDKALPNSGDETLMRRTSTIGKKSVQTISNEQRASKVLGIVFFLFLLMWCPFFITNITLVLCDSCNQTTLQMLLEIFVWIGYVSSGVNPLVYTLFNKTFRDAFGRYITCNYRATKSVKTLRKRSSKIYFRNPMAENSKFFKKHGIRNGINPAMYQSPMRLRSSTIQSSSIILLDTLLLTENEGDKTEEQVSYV

Human 5-HT2C = Human 5-HT2C (Homo sapiens, UniProt P28335); assay: Radioligand binding: Human 5-HT2C
Human 5-HT3a = Human 5-HT3a (Homo sapiens, UniProt P46098); assay: Radioligand binding: Human 5-HT3a
Human 5-HT3a, sequence (P46098 24-478): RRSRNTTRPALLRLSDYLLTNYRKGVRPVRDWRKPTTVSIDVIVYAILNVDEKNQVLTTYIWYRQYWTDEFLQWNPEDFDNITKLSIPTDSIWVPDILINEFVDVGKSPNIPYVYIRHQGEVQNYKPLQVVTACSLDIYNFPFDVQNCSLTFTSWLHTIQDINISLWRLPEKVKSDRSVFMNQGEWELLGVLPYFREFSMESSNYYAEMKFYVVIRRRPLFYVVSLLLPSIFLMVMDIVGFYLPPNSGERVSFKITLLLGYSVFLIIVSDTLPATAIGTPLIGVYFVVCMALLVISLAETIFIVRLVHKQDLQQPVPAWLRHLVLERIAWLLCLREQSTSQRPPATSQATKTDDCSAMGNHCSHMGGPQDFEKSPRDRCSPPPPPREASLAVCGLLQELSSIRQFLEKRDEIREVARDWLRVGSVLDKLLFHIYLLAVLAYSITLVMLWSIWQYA

Human CCK2 (CCKB) = Human CCK2 (CCKB) (Homo sapiens, UniProt P32239); assay: Radioligand binding: Human CCK2
Human CCK2 (CCKB), sequence (P32239 whole entry): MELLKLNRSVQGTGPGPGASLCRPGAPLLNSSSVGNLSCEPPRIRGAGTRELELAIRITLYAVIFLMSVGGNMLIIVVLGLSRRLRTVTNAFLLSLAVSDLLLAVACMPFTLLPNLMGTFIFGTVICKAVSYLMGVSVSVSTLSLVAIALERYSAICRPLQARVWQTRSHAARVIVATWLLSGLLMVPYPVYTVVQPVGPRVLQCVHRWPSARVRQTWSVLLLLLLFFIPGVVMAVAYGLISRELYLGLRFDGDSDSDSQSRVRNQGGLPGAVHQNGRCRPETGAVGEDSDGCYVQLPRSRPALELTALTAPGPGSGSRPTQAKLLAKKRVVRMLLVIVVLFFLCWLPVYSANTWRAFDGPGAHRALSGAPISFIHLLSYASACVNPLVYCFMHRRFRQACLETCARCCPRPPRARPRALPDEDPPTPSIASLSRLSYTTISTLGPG

Human VPAC1 (VIP1) = Human VPAC1 (VIP1) (Homo sapiens, UniProt P32241); assay: Radioligand binding: Human VPAC1
Human VPAC1 (VIP1), sequence (P32241 31-457): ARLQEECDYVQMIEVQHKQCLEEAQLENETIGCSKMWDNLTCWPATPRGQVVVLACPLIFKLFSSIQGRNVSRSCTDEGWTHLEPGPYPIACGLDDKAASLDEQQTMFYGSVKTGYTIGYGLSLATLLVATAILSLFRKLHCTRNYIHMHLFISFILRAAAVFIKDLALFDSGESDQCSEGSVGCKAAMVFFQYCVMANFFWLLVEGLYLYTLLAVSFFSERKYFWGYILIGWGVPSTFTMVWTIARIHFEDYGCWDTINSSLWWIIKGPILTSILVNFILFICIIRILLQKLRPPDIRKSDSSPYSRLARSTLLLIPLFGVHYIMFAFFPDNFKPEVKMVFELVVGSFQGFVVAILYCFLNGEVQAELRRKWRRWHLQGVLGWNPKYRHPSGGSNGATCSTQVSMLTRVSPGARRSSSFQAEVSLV

Rat BB (non-selective) = assay: Radioligand binding: Rat BB; details: [125I]-[Tyr4]-bombesin 0.01 nM
Rat NT (non-selective) = assay: Radioligand binding: Rat NT; details: [125I]-Tyr3-neurotensin 0.05 nM
Human μ = Human μ (Homo sapiens, UniProt P35372); assay: Radioligand binding: Human μ opiate receptor
Human δ2 = Human δ2 (Homo sapiens, UniProt P41143); assay: Radioligand binding: Human δ2 opiate receptor
Human δ2, sequence (P41143 whole entry): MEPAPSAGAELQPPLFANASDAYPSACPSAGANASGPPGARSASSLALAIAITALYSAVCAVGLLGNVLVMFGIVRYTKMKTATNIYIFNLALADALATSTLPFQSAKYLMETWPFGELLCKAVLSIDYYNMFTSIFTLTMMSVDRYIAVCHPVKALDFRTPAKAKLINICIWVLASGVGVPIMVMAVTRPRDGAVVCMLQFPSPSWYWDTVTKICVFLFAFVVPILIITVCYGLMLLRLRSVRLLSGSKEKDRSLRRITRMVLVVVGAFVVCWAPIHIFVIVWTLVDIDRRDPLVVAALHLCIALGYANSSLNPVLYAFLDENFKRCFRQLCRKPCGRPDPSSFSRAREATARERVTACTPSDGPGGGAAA

Rat dopamine transporter = Rat dopamine transporter (Rattus norvegicus, UniProt P23977); assay: Radioligand binding: Rat dopamine transporter
Rat dopamine transporter, sequence (P23977 whole entry): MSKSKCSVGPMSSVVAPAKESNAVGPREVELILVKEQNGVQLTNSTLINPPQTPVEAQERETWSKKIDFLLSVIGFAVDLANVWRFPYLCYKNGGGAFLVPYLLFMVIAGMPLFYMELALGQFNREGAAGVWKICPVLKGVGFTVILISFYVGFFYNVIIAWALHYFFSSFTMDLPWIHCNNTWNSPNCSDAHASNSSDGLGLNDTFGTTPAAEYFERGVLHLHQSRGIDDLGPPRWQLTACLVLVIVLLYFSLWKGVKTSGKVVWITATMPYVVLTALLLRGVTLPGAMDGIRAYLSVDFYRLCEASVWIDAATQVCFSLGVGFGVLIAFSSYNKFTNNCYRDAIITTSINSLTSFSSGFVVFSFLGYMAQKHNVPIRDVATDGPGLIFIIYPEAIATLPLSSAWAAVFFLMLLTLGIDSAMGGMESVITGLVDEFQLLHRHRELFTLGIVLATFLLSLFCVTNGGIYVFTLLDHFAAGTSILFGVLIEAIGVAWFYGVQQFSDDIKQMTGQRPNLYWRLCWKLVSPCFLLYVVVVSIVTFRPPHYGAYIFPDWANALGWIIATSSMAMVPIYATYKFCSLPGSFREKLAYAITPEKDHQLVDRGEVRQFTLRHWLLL

Rat GABA (non-selective) = assay: Radioligand binding: Rat GABA; details: [3H]-GABA 10 nM
[1] = molecular target: Mouse sst (non-selective); assay: Radioligand binding: Mouse sst; details: [125I]-Tyr11-somatostatin 0.05 nM
human Nav1.5 = human Nav1.5 (Homo sapiens, UniProt Q14524); assay: Whole cell voltage-clamp, cardiac sodium current; details: 3 μM for 3 min, n = 3 cells
rat Nav1.2 = assay: Whole cell voltage-clamp, neuronal sodium current; details: 3 μM for 3 min, n = 3 cells
[2] = molecular target: Rat Ca2+ channel (L, diltiazem site); assay: Radioligand binding: Rat Ca2+ channel; details: [3H]-diltiazem 5 nM
[3] = read-out: % Inhibition of specific binding (1 μM)

Human A1, sequence (P30542 whole entry): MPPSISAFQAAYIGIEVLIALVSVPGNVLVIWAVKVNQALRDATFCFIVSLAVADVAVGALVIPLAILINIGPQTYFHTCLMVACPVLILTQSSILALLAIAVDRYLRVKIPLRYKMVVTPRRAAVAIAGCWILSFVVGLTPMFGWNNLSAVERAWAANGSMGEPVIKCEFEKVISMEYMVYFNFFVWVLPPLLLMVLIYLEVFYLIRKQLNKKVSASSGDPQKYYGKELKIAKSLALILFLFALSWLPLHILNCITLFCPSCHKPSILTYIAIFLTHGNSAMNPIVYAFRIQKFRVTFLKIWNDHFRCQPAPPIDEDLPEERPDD

In the case of `COC(=O)N1CCC(CN2CCC(CNC(=O)c3cccc4[nH]c(C(C)C)nc34)CC2)CC1` [TD-8954, 4-(4-{[(2-isopropyl-1H-benzoimidazole-4-carbonyl)amino]methyl}-piperidin-1-ylmethyl)piperidine-1-carboxylic acid methyl ester], the “dose associated with a relaxation response of 0.1 mm” value (rat esophagus) is reported as 0.23 mg/kg, the “dose producing a maximal response” value (healthy human subjects; single oral dose) is reported as 0.5 mg and the “lowest dose associated with a prokinetic effect” value (healthy human subjects; single oral dose) is reported as 0.1 mg. The “time to first bowel movement compared to placebo” value (healthy human subjects; single oral dose 0.1–20 mg, p < 0.05) was “statistically significant reduction”, the pKi (K+V channel) was under 6 and the “% Inhibition of specific binding (1 μM)” value (K+V channel; TD-8954 1 μM) was −5%. It also gave a Ki (Human A1) of over 1000 nM, an inhibition at 1 µM (Human A1; [3]) of -4% and a Ki (Human D5) of over 1000 nM. The Ki (Human M1) was over 1000 nM, the Ki (Human B2) was over 1000 nM and the inhibition at 1 µM (Human B2; [3]) was 3%. It also gave a Ki (Rat CRF1) of over 1000 nM, an inhibition at 1 µM (Rat CRF1; [3]) of -6% and a Ki (Human V2) of over 1000 nM. The pKi (Rat AMPA) was under 6, the “% Inhibition of specific binding (1 μM)” value (Rat AMPA; TD-8954 1 μM) was −4% and the inhibition at 1 µM (Rat NMDA) was -6%. For the same compound, the “% Inhibition of control (1 μM)” value (Human PDE4) was −19%, the Ki (Human ETA) was over 1000 nM and the Ki (Human NK2) was over 1000 nM. The Ki (Rat 5-HT1B) was over 1000 nM, the Ki (Human CGRP) was over 1000 nM and the Ki (Human 5-HT6) was over 1000 nM. For the same compound, the Ki (Human 5-HT7) was over 1000 nM, the Ki (Human 5-HT2A) was over 1000 nM and the Ki (Human 5-HT2B) was over 1000 nM. The Ki (Human 5-HT2C) was over 1000 nM, the Ki (Human 5-HT3a) was over 100000 nM and the Ki (Human CCK2 (CCKB)) was over 1000 nM. For the same compound, the inhibition at 1 µM (Human CCK2 (CCKB); [3]) was -1%, the Ki (Human VPAC1 (VIP1)) was over 1000 nM and the inhibition at 1 µM (Human VPAC1 (VIP1); [3]) was 2%. The pKi (Rat BB (non-selective)) was under 6, the “% Inhibition of specific binding (1 μM)” value (Rat BB (non-selective); TD-8954 1 μM) was 4% and the pKi (Rat NT (non-selective)) was under 6. For the same compound, the “% Inhibition of specific binding (1 μM)” value (Rat NT (non-selective); TD-8954 1 μM) was 4%, the Ki (Human μ) was over 1000 nM and the Ki (Human δ2) was over 1000 nM. The Ki (Rat dopamine transporter) was over 1000 nM, the inhibition at 1 µM (Rat dopamine transporter; [3]) was 3% and the pKi (Rat GABA (non-selective)) was under 6. For the same compound, the “% Inhibition of specific binding (1 μM)” value (Rat GABA (non-selective); TD-8954 1 μM) was −6%, the pKi [1] was under 6 and the “% Inhibition of specific binding (1 μM)” value ([1]; TD-8954 1 μM) was −6%. For the same compound, the “effect on magnitude of inward human Nav1.5 sodium current” value (human Nav1.5) was “no effect”, the “effect on magnitude of inward rat Nav1.2a sodium current” value (rat Nav1.2) was “no effect” and the pKi [2] was under 6.
